Laboratory results taken from US20250195855A1, “INGESTIBLE DEVICE FOR DELIVERY OF THERAPEUTIC AGENT TO THE GASTROINTESTINAL TRACT” (BIORA THERAPEUTICS, INC., priority 2022, published 2025).

How the values were obtained:
[1] = design: species or system female Yucatan swine; details: in vivo
Description: The above externally-triggered study was also performed using semaglutide, a glucagon-like-peptide-1 (GLP-1) receptor agonist that stimulates insulin secretion and suppress glucagon release. Devices filled with ˜0.96 mg of semaglutide were administrated by intraduodenal (ID) endoscopic placement and were externally triggered in the proximal small intestine of the female Yucatan swine. Plasma samples were then collected from 0 to 240 hours post-dose. Systemic concentrations of semaglutide were measured using LC-MS-MS to evaluate the PK of semaglutide with the OBDS device via ID administration (animals 1003-ID; 1004-ID; 1005-ID; 1009-ID; 10053-ID and 1055-ID in FIG. 87) compared with the IV control (animal 1015-IV in FIG. 87).
Seven out of eight (7/8) devices were successfully advanced through the pyloric sphincter via endoscopic placement and triggered in the proximal small intestine.

[2] = 40 mg bi-weekly dose; cited from earlier work

detectable drug levels up to (post-dosing) [1]	Compound	clinical signs before or after dosing [1]	bioavailability, subcutaneous route over IV, estimated in human trials [2]
up to 10 days	CC[C@H](C)[C@H](NC(=O)[C@H](Cc1ccccc1)NC(=O)[C@H](CCC(=O)O)NC(=O)[C@H](CCCCNC(=O)COCCOCCNC(=O)COCCOCCNC(=O)CC[C@H](NC(=O)CCCCCCCCCCCCCCCCC(=O)O)C(=O)O)NC(=O)[C@H](C)NC(=O)[C@H](C)NC(=O)[C@H](CCC(N)=O)NC(=O)CNC(=O)[C@H](CCC(=O)O)NC(=O)[C@H](CC(C)C)NC(=O)[C@H](Cc1ccc(O)cc1)NC(=O)[C@H](CO)NC(=O)[C@H](CO)NC(=O)[C@@H](NC(=O)[C@H](CC(=O)O)NC(=O)[C@H](CO)NC(=O)[C@@H](NC(=O)[C@H](Cc1ccccc1)NC(=O)[C@@H](NC(=O)CNC(=O)[C@H](CCC(=O)O)NC(=O)C(C)(C)NC(=O)[C@@H](N)Cc1cnc[nH]1)[C@@H](C)O)[C@@H](C)O)C(C)C)C(=O)N[C@@H](C)C(=O)N[C@@H](Cc1c[nH]c2ccccc12)C(=O)N[C@@H](CC(C)C)C(=O)N[C@H](C(=O)N[C@@H](CCCNC(=N)N)C(=O)NCC(=O)N[C@@H](CCCNC(=N)N)C(=O)NCC(=O)O)C(C)C [semaglutide]	No significant clinical signs were observed	
	adalimumab		64%
